Measured values published in US20110136745A1, “METHOD OF SELECTING SOYBEANS WITH ENHANCED BIOACTIVITY AND COMPOSITIONS FOR REDUCING CANCER CELL VIABILITY” (Monsanto Technology LLC., priority 2008, published 2011).

Test system: L1210 leukemia cells
Experiment: Cytotoxicity assay on L1210 leukemia cells (Cell Counting Kit-8)
Conditions: positive control at 1.0 μM

SMILES: COc1cc([C@@H]2c3cc4c(cc3[C@@H](O[C@@H]3O[C@@H]5CO[C@@H](C)O[C@H]5[C@H](O)[C@H]3O)[C@H]3COC(=O)[C@H]23)OCO4)cc(OC)c1O [etoposide, Etoposide]
- inhibition of L1210 leukemia cell growth: 90.5%
